Source: patent publication US6737383B1, “Herbicidal oxadiazolidines” (priority 1999, dated 2004)

Key:
winter wheat [1] = assay: Test E winter wheat; format: in vivo, Triticum aestivum; details: Postemergence; for Plant response rating, Wheat (winter): 0 to 100 scale
How it was run: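 Compounds formulated in non-phytotoxic solvent mixture with surfactant; for postemergence, sprayed on plants at 1- to 4-leaf stage grown in 60:40 sandy loam/greenhouse potting mix. Kept in greenhouse ~21 to 28 days, then visually rated against untreated controls.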

green foxtail [2] = assay: Test E green foxtail; format: in vivo, Setaria viridis; details: Preemergence
crabgrass = assay: Test B pre/postemergence crabgrass; format: in vivo, Digitaria sanguinalis
How it was run: (§1)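 Herbicidal effect was estimated by eye on a ten-point control scale after plants spent twelve to sixteen days in a greenhouse following soil or foliar treatment. Foliar sprays targeted plants at one to four leaves; all doses were formulated in a non-phytotoxic solvent with surfactant.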

blackgrass = assay: Test E blackgrass; format: in vivo, Alopecurus myosuroides; details: Preemergence
wild oat [3] = assay: Test E wild oat; format: in vivo, Avena fatua; details: Preemergence
winter barley = assay: Test E winter barley; format: in vivo, Hordeum vulgare; details: Preemergence
common groundsel = assay: Test D common groundsel; format: in vivo, Senecio vulgaris; details: Preemergence, 0 to 100 scale
How it was run: (§2)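 Seeds were sown in greenhouse pots, one species per pot or compartment. Compounds were in a non-phytotoxic solvent mixture with surfactant; preemergence applications went on the sandy loam surface within one day of planting. Injury was rated visually after 14 to 21 days, 0 (none) to 100 (complete control).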

winter wheat [4] = assay: Test E winter wheat; format: in vivo, Triticum aestivum; details: Preemergence
Alexandergrass = assay: Test D Alexandergrass; format: in vivo, Brachiaria plantaginea; details: Preemergence, 0 to 100 scale
How it was run: as §2

Italian ryegrass = assay: Test E Italian ryegrass; format: in vivo, Lolium multiflorum; details: Preemergence
goosegrass = assay: Test D goosegrass; format: in vivo, Eleusine indica; details: Preemergence, 0 to 100 scale
How it was run: as §2

wheat = assay: Test B pre/postemergence wheat; format: in vivo, Triticum aestivum
How it was run: as §1

Green foxtail [5] = assay: Test D green foxtail; format: in vivo
How it was run: as §2

rice = assay: Test B flood test rice; format: in vivo, Oryza sativa
How it was run: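 Read-out is a visual response score from 0 (no effect) to 10 (complete control), assigned by comparison with untreated controls. Treatment was applied at the 2-leaf stage, and plants stayed in the greenhouse for twelve to sixteen days before scoring.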

wild oat [6] = assay: Test B pre/postemergence wild oat; format: in vivo, Avena fatua
How it was run: as §1

[7] = Rate 62 g/ha, 0 to 100 scale, 0 no effect, 100 complete control
[8] = Rate 125 g/ha, 0 to 100 scale (0 no effect, 100 complete control)
[9] = Postemergence, Rate 125 g/ha, scale of 0 to 10 where 0 is no effect and 10 is complete control
[10] = Preemergence, Rate 62 g/ha, scale 0 to 10 (0 no effect, 10 complete control)
[11] = Preemergence, Rate 125 g/ha, 0 is no effect, 10 is complete control
[12] = Preemergence, Rate 250 g/ha, scale 0 to 10, 0 is no effect, 10 is complete control
[13] = Preemergence, Rate 500 g/ha, scale 0 to 10 (0 no effect, 10 complete control)
[14] = Rate 62 g/ha, Postemergence, scale of 0 to 10 where 0 is no effect and 10 is complete control
[15] = Rate 250 g/ha, Postemergence, scale 0 to 10, 0 is no effect, 10 is complete control
[16] = Rate 500 g/ha, Postemergence, scale 0 to 10
[17] = Rate 500 g/ha, 0 to 100 scale where 0 is no effect and 100 is complete control
[18] = Rate 16 g/ha, 0 no injury, 100 complete control
[19] = Rate 32 g/ha, 0 no injury, 100 complete control
[20] = Rate 64 g/ha, 0 no injury, 100 complete control
[21] = Rate 125 g/ha, 0 no injury, 100 complete control
[22] = Rate 64 g/ha, Preemergence; 0 to 100 scale, 0 no injury, 100 complete control
[23] = Rate 125 g/ha, Preemergence; 0 to 100 scale, 0 no injury, 100 complete control

## CC(C)N(C(=O)n1oc(=O)n(C(C)C)c1=O)c1ccc(F)cc1 [Compound 131]
Winter wheat [1]; Rate 62 g/ha
  Plant response rating, Wheat (winter): 50
Winter wheat [1]; Rate 125 g/ha
  Plant response rating, Wheat (winter): 60
Winter wheat [1]; Rate 500 g/ha, 0 no effect, 100 complete control
  Plant response rating, Wheat (winter): 20
Winter wheat [1]; Rate 250 g/ha, 0 to 100 scale where 0 is no effect and 100 is complete control
  Wheat (winter) plant response rating: 0
Green foxtail [2]; [7]
  Plant response rating, Green foxtail: 60
Green foxtail [2]; [8]
  Plant response rating, Green foxtail: 100
Green foxtail [2]; Rate 250 g/ha
  Green foxtail plant response rating (0 to 100 scale): 100
crabgrass; [9]
  Crabgrass plant response rating: 7
crabgrass; [10]
  Crabgrass plant response rating: 2
crabgrass; [11]
  Crabgrass plant response rating (0 to 10 scale): 7
crabgrass; [12]
  Crabgrass plant response rating: 9
crabgrass; [13]
  Crabgrass plant response rating: 10
crabgrass; [14]
  Crabgrass plant response rating: 5
crabgrass; [15]
  Plant response rating, Crabgrass: 8
crabgrass; [16]
  Crabgrass plant response rating: 9
blackgrass; [7]
  Plant response rating, Blackgrass: 60
blackgrass; [8]
  Plant response rating, Blackgrass: 50
blackgrass; Rate 250 g/ha
  Blackgrass plant response rating (0 to 100 scale): 60
blackgrass; [17]
  Plant response rating, Blackgrass: 100
Wild oat [3]; [7]
  Plant response rating, Wild oat: 50
Wild oat [3]; [8]
  Plant response rating, Wild oat: 50
Wild oat [3]; Rate 250 g/ha
  Wild oat plant response rating (0 to 100 scale): 60
Wild oat [3]; [17]
  Plant response rating, Wild oat: 100
Winter barley; [7]
  Plant response rating, Barley (winter): 40
Winter barley; [8]
  Plant response rating, Barley (winter): 65
Winter barley; Rate 250 g/ha
  Barley (winter) plant response rating (0 to 100 scale): 100
Winter barley; [17]
  Plant response rating, Barley (winter): 100
Common groundsel; [18]
  Plant response rating, Com. groundsel: 75
Common groundsel; [19]
  Plant response rating, Com. groundsel: 75
Common groundsel; [20]
  Plant response rating, Com. groundsel: 85
Common groundsel; [21]
  Plant response rating, Com. groundsel: 100
Common groundsel; Rate 250 g/ha
  Plant response rating, Com. groundsel: 100
Common groundsel; Rate 500 g/ha
  Plant response rating, Com. groundsel: 100
Winter wheat [4]; [7]
  Plant response rating, Wheat (winter): 50
Winter wheat [4]; [8]
  Plant response rating, Wheat (winter): 35
Winter wheat [4]; Rate 250 g/ha
  Wheat (winter) plant response rating (0 to 100 scale): 60
Winter wheat [4]; [17]
  Plant response rating, Wheat (winter): 95
Alexandergrass; [18]
  Plant response rating, Alexandergrass: 20
Alexandergrass; [19]
  Plant response rating, Alexandergrass: 90
Alexandergrass; [20]
  Plant response rating, Alexandergrass: 98
Alexandergrass; [21]
  Plant response rating, Alexandergrass: 100
Alexandergrass; Rate 250 g/ha
  Plant response rating, Alexandergrass: 100
Alexandergrass; Rate 500 g/ha
  Plant response rating, Alexandergrass: 100
Italian ryegrass; [7]
  Plant response rating, I. Ryegrass: 70
Italian ryegrass; [8]
  Plant response rating, I. Ryegrass: 100
Italian ryegrass; Rate 250 g/ha
  I. Ryegrass plant response rating (0 to 100 scale): 100
Italian ryegrass; [17]
  Plant response rating, I. Ryegrass: 100
goosegrass; [18]
  Plant response rating, Goosegrass: 75
goosegrass; [19]
  Plant response rating, Goosegrass: 98
goosegrass; [20]
  Plant response rating, Goosegrass: 100
goosegrass; [21]
  Plant response rating, Goosegrass: 100
goosegrass; Rate 250 g/ha
  Plant response rating, Goosegrass: 100
goosegrass; Rate 500 g/ha
  Plant response rating, Goosegrass: 100
wheat; [9]
  Wheat plant response rating: 3
wheat; [10]
  Wheat plant response rating: 2
wheat; [11]
  Wheat plant response rating (0 to 10 scale): 8
wheat; [12]
  Wheat plant response rating: 8
wheat; [13]
  Wheat plant response rating: 10
wheat; [14]
  Wheat plant response rating: 3
wheat; [15]
  Plant response rating, Wheat: 5
wheat; [16]
  Wheat plant response rating: 6
Green foxtail [5]; Preemergence; Rate 16 g/ha; 0 to 100 scale, 0 no injury, 100 complete control
  Plant response rating, Green foxtail: 90
Green foxtail [5]; Preemergence; Rate 32 g/ha; 0 to 100 scale, 0 no injury, 100 complete control
  Plant response rating, Green foxtail: 100
Green foxtail [5]; Rate 16 g/ha; Preemergence; 0 to 100 scale, 0 no injury, 100 complete control
  Plant response rating, Green foxtail: 90
Green foxtail [5]; [22]
  Green foxtail plant response rating: 100
  Plant response rating, Green foxtail: 100
Green foxtail [5]; [23]
  Green foxtail plant response rating: 100
  Plant response rating, Green foxtail: 100
Green foxtail [5]; Rate 250 g/ha; Preemergence; 0 to 100 scale
  Plant response rating, Green foxtail: 100
Green foxtail [5]; Rate 500 g/ha, Preemergence; 0 to 100 scale
  Plant response rating, Green foxtail: 100
rice; Rate 62 g/ha, headed Pre-emergence (flood test species), scale 0 to 10 (0 no effect, 10 complete control)
  Rice plant response rating: 0
rice; Rate 125 g/ha, Pre-emergence, flood test species, scale 0 to 10 where 0 is no effect and 10 is complete control
  Rice plant response rating: 0
rice; Rate 250 g/ha, headed Pre-emergence (flood test species), scale 0 to 10 (0 no effect, 10 complete control)
  Rice plant response rating: 5
rice; Rate 500 g/ha, headed Pre-emergence (flood test species), scale 0 to 10 (0 no effect, 10 complete control)
  Plant response rating, Rice: 8
Wild oat [6]; [9]
  Wild oats plant response rating: 3
Wild oat [6]; [10]
  Wild oats plant response rating: 10
Wild oat [6]; [11]
  Wild oats plant response rating (0 to 10 scale): 10
Wild oat [6]; [12]
  Wild oats plant response rating: 10
Wild oat [6]; [13]
  Wild oats plant response rating: 10
Wild oat [6]; [14]
  Wild oats plant response rating: 2
Wild oat [6]; [15]
  Plant response rating, Wild oats: 9
Wild oat [6]; [16]
  Wild oats plant response rating: 10
